Reference: patent US7531646B2, “β-D-ribosidase activity indicators with a chromogenic substrate” (priority 2001, dated 2009)
Structures can show the parent of a compound that is named as a salt.

Experiments:
Assay in all cases: Substrate hydrolysis on Columbia agar
[1] = system: K. pneumoniae; type: cell-based; set-up: key to the marks not given beside the values; details: 300 mg/l, 18 hours
[2] = system: K. oxytoca; type: cell-based; details: 300 mg/l, 18 hours
[3] = system: C. diversus; type: cell-based; details: 300 mg/l, 18 hours
[4] = system: Serratia marcescens; type: cell-based; details: Serratia marcescens NCTC 10211; 300 mg/l; 18 hours
[5] = system: Serratia spp.; type: cell-based; details: 300 mg/l, 18 hours
[6] = system: E. cloacae; type: cell-based; set-up: key to the marks not given beside the values; details: 300 mg/l, 18 hours
[7] = system: Salmonella typhimurium; type: cell-based; details: Salmonella typhimurium NCTC 74; 300 mg/l; 18 hours
[8] = system: Salmonella typhi; type: cell-based; details: Salmonella typhi NCTC 8385; 300 mg/l; 18 hours
[9] = system: Salmonella oranienburg; type: cell-based; details: Salmonella oranienburg SAX 56; 300 mg/l; 18 hours
[10] = system: Salmonella panama; type: cell-based; details: Salmonella panama SAX 58; 300 mg/l; 18 hours
[11] = system: A. baumanii; type: cell-based; details: A. baumanii ATCC 19606; 300 mg/l; 18 hours
[12] = system: A. calcoaceticus; type: cell-based; details: A. calcoaceticus ATCC 7844; 300 mg/l; 18 hours
[13] = system: P. aeruginosa; type: cell-based; details: 300 mg/l, 18 hours
[14] = system: Providencia alcalifaciens; type: cell-based; details: 300 mg/l, 18 hours
[15] = system: P. vulgaris; type: cell-based; details: 300 mg/l, 18 hours
[16] = system: Vibrio cholerae; type: cell-based; details: 300 mg/l, 18 hours
[17] = system: Vibrio metschnikovii; type: cell-based; details: Vibrio metschnikovii NCTC 8443; 300 mg/l; 18 hours
[18] = system: Streptococcus salivarius; type: cell-based; details: Streptococcus salivarius NCTC 8618; 300 mg/l; 18 hours
[19] = system: Streptococcus gordonii; type: cell-based; details: Streptococcus gordonii NCTC 7865; 300 mg/l; 18 hours
[20] = system: Streptococcus pneumoniae; type: cell-based; details: Streptococcus pneumoniae NCTC 7465; 300 mg/l; 18 hours
[21] = system: Haemolytic streptococcus G; type: cell-based; details: 300 mg/l, 18 hours
[22] = system: C. diphtheriae; type: cell-based, Corynebacterium diphtheriae; details: 300 mg/l, 18 hours
[23] = system: Staphylococcus haemolyticus; type: cell-based; details: 300 mg/l, 18 hours
[24] = system: Enterococcus faecalis; type: cell-based; details: 300 mg/l, 18 hours

O=c1cc(-c2ccc(OC3OC(CO)C(O)C3O)c(O)c2)oc2ccccc12 [DHF-riboside, 3′,4′-dihydroxyflavone-4′-β-D-ribofuranoside Sodium Salt]
++: Hydrolysis by Gram negative bacteria ([1]; K. pneumoniae KPN 2) | Hydrolysis by Gram negative bacteria ([1]; K. pneumoniae KPN 3) | Hydrolysis by Gram negative bacteria ([1]; K. pneumoniae KPN 4) | Hydrolysis by Gram negative bacteria ([1]; K. pneumoniae NCTC 10896) | Hydrolysis by Gram negative bacteria ([2]; K. oxytoca KOX 1) | Hydrolysis by Gram negative bacteria ([2]; K. oxytoca KOX 2) | Hydrolysis by Gram negative bacteria ([3]; C. diversus CDI 1) | Hydrolysis by Gram negative bacteria ([3]; C. diversus CDI 2) | Hydrolysis by Gram negative bacteria [4] | Hydrolysis by Gram negative bacteria ([5]; Serratia spp. SEX 1) | Hydrolysis by Gram negative bacteria ([5]; Serratia spp. SEX 2) | Hydrolysis by Gram negative bacteria ([5]; Serratia spp. SEX 3) | Hydrolysis by Gram negative bacteria ([5]; Serratia spp. SEX 4) | Hydrolysis by Gram negative bacteria ([6]; E. cloacae ECL 1) | Hydrolysis by Gram negative bacteria ([6]; E. cloacae ECL 2) | Hydrolysis by Gram negative bacteria ([6]; E. cloacae ECL 3) | Hydrolysis by Gram negative bacteria ([6]; E. cloacae ECL 4) | Hydrolysis by Gram negative bacteria ([6]; E. cloacae NCTC 11936) | Hydrolysis by Gram negative bacteria [7] | Hydrolysis by Gram negative bacteria [8] | Hydrolysis by Gram negative bacteria [9] | Hydrolysis by Gram negative bacteria [10] | Hydrolysis by Gram negative bacteria [17] | Hydrolysis by Gram positive organisms ([22]; C. diphtheriae NCTC 10356) | Hydrolysis by Gram positive organisms ([22]; C. diphtheriae NCTC 11397) | Hydrolysis by Gram positive organisms ([22]; Corynebacterium diphtheria NEQAS)
−: Hydrolysis by Gram negative bacteria [11] | Hydrolysis by Gram negative bacteria [12] | Hydrolysis by Gram negative bacteria ([14]; Providencia alcalifaciens PAL 2) | Hydrolysis by Gram negative bacteria ([15]; P. vulgaris PVU 2) | Hydrolysis by Gram negative bacteria ([15]; P. vulgaris PVU 4) | Hydrolysis by Gram negative bacteria ([15]; P. vulgaris PVU 5) | Hydrolysis by Gram negative bacteria ([16]; Vibrio cholera NCTC 6585) | Hydrolysis by Gram negative bacteria ([16]; Vibrio cholera NCTC 7270) | Hydrolysis by Gram negative bacteria ([16]; Vibrio cholera NCTC 8021) | Hydrolysis by Gram negative bacteria ([16]; Vibrio cholera NCTC 10732) | Hydrolysis by Gram negative bacteria ([16]; Vibrio cholera NCTC 12945) | Hydrolysis by Gram negative bacteria ([16]; Vibrio cholerae NCTC 7254) | Hydrolysis by Gram negative bacteria ([16]; Vibrio cholerae NCTC 8042) | Hydrolysis by Gram negative bacteria ([16]; Vibrio cholerae NCTC 10255) | Hydrolysis by Gram negative bacteria ([16]; Vibrio cholerae NCTC 10954) | Hydrolysis by Gram positive organisms [18] | Hydrolysis by Gram positive organisms [19] | Hydrolysis by Gram positive organisms [20] | Hydrolysis by Gram positive organisms ([21]; Haemolytic streptococcus G 1) | Hydrolysis by Gram positive organisms ([21]; Haemolytic streptococcus G 2) | Hydrolysis by Gram positive organisms ([24]; Enterococcus faecalis 1) | Hydrolysis by Gram positive organisms ([24]; Enterococcus faecalis 7)
+: Hydrolysis by Gram negative bacteria ([13]; P. aeruginosa ATCC 10145) | Hydrolysis by Gram negative bacteria ([13]; P. aeruginosa NCTC 10662) | Hydrolysis by Gram negative bacteria ([14]; Providencia alcalifaciens PAL 1) | Hydrolysis by Gram positive organisms ([21]; Haemolytic streptococcus G 3) | Hydrolysis by Gram positive organisms ([22]; C. diphtheriae NCTC 3987) | Hydrolysis by Gram positive organisms ([23]; Staphylococcus haemolyticus RB 66) | Hydrolysis by Gram positive organisms ([23]; Staphylococcus haemolyticus RB 67) | Hydrolysis by Gram positive organisms ([23]; Staphylococcus haemolyticus RB 68) | Hydrolysis by Gram positive organisms ([23]; Staphylococcus haemolyticus RB 69) | Hydrolysis by Gram positive organisms ([23]; Staphylococcus haemolyticus RB 70) | Hydrolysis by Gram positive organisms ([24]; Enterococcus faecalis 2) | Hydrolysis by Gram positive organisms ([24]; Enterococcus faecalis 3) | Hydrolysis by Gram positive organisms ([24]; Enterococcus faecalis 4) | Hydrolysis by Gram positive organisms ([24]; Enterococcus faecalis 5) | Hydrolysis by Gram positive organisms ([24]; Enterococcus faecalis 6)
